Results on 15 compounds are retold here after PubChem BioAssay (NCI).

Common to all, as to experiment: inhibition of tumour cell growth, NCI panel, 48 h
Assay [1] concerns HT29 colon.
In assay [2] the test system is OVCAR-5 ovarian.
Assay [3] has as its system SNB-75 CNS.
In assay [4] the test system is SW-620 colon.
Assay [5] deals with KM12 colon.
Assay [6] concerns A549 NSCLC.
In assay [7] the test system is M14 melanoma.
Assay [8] has as its system UACC-257 melanoma.
Assay [9] concerns BT-549 breast.

“And” between values parts separate entries of the source, which are not always exact repeats. Equal values may be shown once.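 Dose response: 5 concentrations. Exposure: 48 h. Format: 96-well plates. Endpoint: linear interpolation; highest concentration if not reached. At the GI50, growth is halved. Definition used: TGI = concentration required for complete inhibition of growth.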 *1 amine or outer side, *2 acyl side, *3 side chain or, on linkers, in order; H or OH if unused. Where a SMILES comes first, the peptide text is derived from it. [ ]: non-standard residue; d: D form. X56 = CC[C@H](C)[C@H](OC(=O)[C@@H](C)[C@@H](CC)N[*:1])C(=O)[*:2]; X32 = C[C@H](N[*:1])C(=O)C(C)(C)C(=O)[*:2]; NMeY = CN[C@@H](Cc1ccc(O)cc1)C(=O)O; NMeL = CN[C@@H](CC(C)C)C(=O)O; NMeV = CN[C@H](C(=O)O)C(C)C

Consider `S=c1nc(N2CCCCC2)ss1`, for which the TGI in assay [1] was 79.6 µM; in [2], > 100 µM; in assay [3], 77 µM; in assay [4], 72.4 µM; in [5], 33.9 µM; in assay [6], 83.7 µM. The TGI is 47.7 µM in [7] and 49.9 µM in assay [8].
As to `CC(=O)/C=C/c1ccc(C)cc1`, the TGI in assay [1], in assay [2], in assay [3], in assay [4], in assay [5] and in [6] was > 100 µM in each case. Further, the TGI in [7] and in assay [8] was > 100 µM each time.
For `C1=Nc2ccccc2C=Nc2ccccc2C=Nc2ccccc2C=Nc2ccccc21.[Cl-].[Pt+2]`, the GI50 in assay [1] is 22.3 µM; in assay [4], 27.6 µM; in assay [6], 28.7 µM; in [7] it was 30.2 µM. In addition, the TGI was 52.5 µM in assay [1], > 100 µM in assay [4], > 100 µM in [6] and > 100 µM in [7].
On to `CCOC(=O)/C(=C\c1ccc[nH]1)C(=O)c1ccccc1`, for which the TGI in [1], in assay [2], in [3], in assay [4], in assay [5] and in assay [6] was > 100 µM each time. Besides, the TGI in assay [7] and in [8] was > 100 µM throughout.
`O=c1c2cccnc2ncn1CCN1CCCC1`: the TGI in [1], in assay [2], in [3], in [4], in [5] and in [6] was > 100 µM in each case. Besides, the TGI in assay [7] is > 100 µM.
On to `CC[C@H](C)[C@@H]1OC(=O)[C@@H](C)[C@@H](CC)NC(=O)[C@H](C)NC(=O)C(C)(C)C(=O)[C@H](C)NC(=O)[C@H](Cc2ccc(OC)cc2)N(C)C(=O)[C@H](C(C)C)N(C)C(=O)CNC(=O)[C@H](CC(C)C)N(C)C(=O)CNC1=O` (cyclo(A[X56]G[NMeL]G[NMeV][NMeY](Me)[X32])), for which the TGI in [1] is 13.2 µM; in assay [2] it was > 100 µM; in assay [4], > 39.1 µM; in assay [9], 0.28 µM; in assay [5], 91.2 µM; in assay [6] it was 3.19 µM and 6.15 µM. For the same compound, the TGI in [7] was 2.02 µM and 0.786 µM. For the same compound, the GI50 in assay [2] is 0.349 µM; in assay [3], < 0.0154 µM; in assay [4], < 0.0316 µM; in assay [5], 0.679 µM; in [7], 0.0403 µM; in assay [8] it was 0.0248 µM.
Regarding `CCC(C(=O)c1ccccc1)C(CCCC(=O)Nc1c(C)cccc1C)N=O` (centres undefined), the TGI in assay [1], in assay [2], in assay [3], in assay [4], in assay [5] and in [6] was > 100 µM in each case. The TGI in [7] and in assay [8] was > 100 µM in each case.
On to `CCOP(=O)(OCC)C1=NC=CC=CC1n1c(-c2ccccc2)nn(CC)c1=O` (centres undefined), for which the TGI in assay [1], in [4], in assay [5], in assay [6] and in assay [8] was > 100 µM throughout.
Turning to `CC(C)C(=O)/C=C/c1ccc(Cl)c(Cl)c1`, the TGI in [1] was determined as 43.8 µM; in [2], 36.8 µM; in [4], 36.3 µM; in [5] it was 29 µM; in assay [6], 49.2 µM; in assay [7], 31.9 µM. In assay [8], this compound gave a TGI of 45.1 µM.
Regarding `CSc1ncnc2c1CCN2`, the GI50 in [1], in assay [4], in [5], in assay [6], in [7] and in assay [8] was > 100 µM in each case. The TGI in assay [1], in [4], in assay [5], in assay [6], in assay [7] and in assay [8] was > 100 µM throughout.
For `COc1cc(/C=C(\OC(C)=O)c2ccc3c(c2)OCO3)cc(OC)c1OC`, the TGI in [1] is 61.9 µM; in assay [2], > 100 µM; in [3] it was 46.7 µM; in [4], > 100 µM; in [5], 48.7 µM; in assay [6], > 100 µM. Moreover, the TGI in [7] is 39.4 µM; in [8] it was 34 µM.
As to `N#CC1CC2(C(=O)C1=O)c1ccccc1-c1ccccc12` (centres undefined), the TGI in [1], in assay [2], in assay [3], in assay [4], in [5] and in assay [6] was > 100 µM in each case. In addition, the TGI in assay [7] and in assay [8] was > 100 µM throughout.
With `Cn1cnc([N+](=O)[O-])c1Sc1nnnn1-c1ccccc1`, the TGI came to 31.9 µM in [1]; 31.7 µM in [2]; 31 µM in assay [3]; 20.2 µM in [4]; 35.2 µM in assay [5]; 62.9 µM in assay [6]. Moreover, the TGI in assay [7] was 23.7 µM; in assay [8], 27.6 µM.
In the case of `O=C(NCc1ccncc1)C1COc2cc(-c3cc(=O)c4ccccc4o3)ccc2O1` (centres undefined), the TGI in [1], in assay [2], in assay [3], in assay [4], in [5] and in assay [6] was > 100 µM each time. Besides, the TGI in assay [7] and in assay [8] was > 100 µM each time.
As to `N#CC1C2CCC3(CC2CCN1C(=O)c1ccccc1)OCCO3` (centres undefined), the TGI in assay [1], in assay [2], in assay [3], in [4], in assay [5] and in assay [6] was > 100 µM in each case. The TGI in assay [7] and in assay [8] was > 100 µM in each case.
